We go through 16 compounds from patent US9969716B2, “Indole derivatives as modulators of methyl modifying enzymes, compositions and uses thereof” (Constellation Pharmaceuticals, Inc., priority 2013, dated 2018).

For orientation: IC50 means the point on the concentration scale where inhibition reaches its midpoint. A low value points to greater potency.

One assay deals with Y641N EZH2 (Homo sapiens, UniProt Q15910, Y641N). Nature of the assay: Y641N EZH2 assay (as EZH2 assay, H3K27Me2 oligonucleosomes as substrate). In kind it is biochemical. Here is the method:
EZH2 Assay: Assays were carried out by mixing rPRC2 together with biotinylated oligonucleosome substrates in the presence of the radio-labeled enzyme co-factor, S-adenosyl-L-methionine (^3H SAM) (Perkin Elmer) and monitoring the enzymatically mediated transfer of tritiated methyl groups from ^3H SAM to histone lysine residues. The amount of resulting tritiated methyl histone product was measured by first capturing the biotinylated oligonucleosomes in streptavidin (SAV) coated FlashPlates (Perkin Elmer), followed by a wash step to remove un-reacted ^3H SAM, and then counting on a TopCount NXT 384 well plate scintillation counter (Perkin Elmer). The final assay conditions for EZH2 were as follows: 50 mM Tris Buffer pH 8.5, 1 mM DTT, 69 μM Brij-35 detergent, 5.0 mM MgCl2, 0.1 mg/mL BSA, 0.2 μM ^3H SAM, 0.2 μM biotinylated oligonucleosomes, 3.6 μM H3K27me3 peptide and 2 nM EZH2.
A 12.5 μL volume of the HMT enzyme, H3K27me3 peptide and oligonucleosome substrate in assay buffer was added to each well of the assay plate using a Multidrop Combi (ThermoFisher). Compounds were pre-incubated with the enzyme for 20 min, followed by initiation of the methyltransferase reaction by addition of 12.5 μL of ^3H SAM in assay buffer (final volume=25 μL). The final concentrations of compounds ranged from a top default concentration of 80 μM down to 0.16 μM in ten 2-fold dilution steps. Reactions were carried out for 60 minutes and quenched with 20 μL per well of 1.96 mM SAH, 50 mM Tris pH 8.5, 200 mM EDTA. Stopped reactions were transferred to SAV coated Flashplates (Perkin Elmer), incubated for 120 min, washed with a plate washer, and then read on the TopCount NXT (1.0 min/well) to measure the amount of methyl histone product formed during the reaction.

Assay [1] concerns H3K27me3 mark in HeLa cells. Nature of the assay: H3K27me3 Alpha Hela Assay (AlphaLISA). In kind it is cell-based. Particulars: Homo sapiens, 72 hrs, read-out: EZH2_Cell_H3K27me3_Alpha_HeLa (EC50_K27me3). The procedure, abridged: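 Ten-dose 3-fold series on HeLa cells (1,000/well, 10% DMEM), 72 hrs at 37° C. Lysis, histone extraction, then AlphaLISA with anti-K27me3 acceptor beads, biotinylated anti-H3 C-ter antibody (3 nM final) and streptavidin donor beads (20 μg/mL final); duplicate plate used for viability. DMSO-normalized dose-response curves fitted.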
Background: Bead proximity is the source of the signal in Alpha formats.

The target in a further assay is EZH2 (Homo sapiens, UniProt Q15910). Kind of assay: EZH2 assay (rPRC2, 3H SAM methyl transfer to biotinylated oligonucleosomes, FlashPlate). The class given is biochemical. In outline: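 rPRC2 (2 nM EZH2) with 0.2 μM biotinylated oligonucleosomes, 3.6 μM H3K27me3 peptide, 0.2 μM 3H SAM in pH 8.5 Tris buffer; compounds (80 to 0.16 μM) preincubated 20 min, reaction 60 min, SAH/EDTA quench. Methylated product captured on streptavidin FlashPlates, scintillation counted.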
EZH2, sequence (Q15910 whole entry): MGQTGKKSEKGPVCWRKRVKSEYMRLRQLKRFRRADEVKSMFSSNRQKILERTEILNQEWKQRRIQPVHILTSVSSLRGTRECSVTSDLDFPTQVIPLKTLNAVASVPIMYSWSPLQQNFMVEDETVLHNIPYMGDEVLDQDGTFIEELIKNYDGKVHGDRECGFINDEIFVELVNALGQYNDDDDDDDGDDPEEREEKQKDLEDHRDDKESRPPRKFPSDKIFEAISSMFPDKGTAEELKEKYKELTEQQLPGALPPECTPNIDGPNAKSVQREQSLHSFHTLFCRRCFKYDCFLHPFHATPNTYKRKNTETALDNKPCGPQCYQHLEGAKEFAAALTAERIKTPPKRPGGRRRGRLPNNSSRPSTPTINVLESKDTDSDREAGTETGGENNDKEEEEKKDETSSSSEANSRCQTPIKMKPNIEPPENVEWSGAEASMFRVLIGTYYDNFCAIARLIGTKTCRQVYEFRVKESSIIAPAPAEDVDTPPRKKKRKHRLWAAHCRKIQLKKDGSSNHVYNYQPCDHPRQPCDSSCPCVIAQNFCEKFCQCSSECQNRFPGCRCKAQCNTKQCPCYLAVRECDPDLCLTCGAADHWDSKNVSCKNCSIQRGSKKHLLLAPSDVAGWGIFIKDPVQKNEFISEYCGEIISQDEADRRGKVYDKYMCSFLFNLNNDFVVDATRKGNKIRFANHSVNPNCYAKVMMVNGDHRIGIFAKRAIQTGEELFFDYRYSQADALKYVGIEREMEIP
EZH2, sequence (O75530 whole entry partner): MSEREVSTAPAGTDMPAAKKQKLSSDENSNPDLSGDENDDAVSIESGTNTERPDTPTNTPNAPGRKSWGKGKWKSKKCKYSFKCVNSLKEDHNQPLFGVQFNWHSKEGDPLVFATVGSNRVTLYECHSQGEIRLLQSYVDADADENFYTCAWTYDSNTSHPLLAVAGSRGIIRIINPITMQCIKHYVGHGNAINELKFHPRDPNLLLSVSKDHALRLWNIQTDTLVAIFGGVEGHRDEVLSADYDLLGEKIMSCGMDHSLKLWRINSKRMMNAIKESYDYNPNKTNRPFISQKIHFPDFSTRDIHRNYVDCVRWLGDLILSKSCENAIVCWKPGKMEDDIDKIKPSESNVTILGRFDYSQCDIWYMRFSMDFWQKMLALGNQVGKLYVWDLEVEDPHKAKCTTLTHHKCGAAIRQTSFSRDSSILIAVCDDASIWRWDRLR
EZH2, sequence (Q15022 whole entry partner): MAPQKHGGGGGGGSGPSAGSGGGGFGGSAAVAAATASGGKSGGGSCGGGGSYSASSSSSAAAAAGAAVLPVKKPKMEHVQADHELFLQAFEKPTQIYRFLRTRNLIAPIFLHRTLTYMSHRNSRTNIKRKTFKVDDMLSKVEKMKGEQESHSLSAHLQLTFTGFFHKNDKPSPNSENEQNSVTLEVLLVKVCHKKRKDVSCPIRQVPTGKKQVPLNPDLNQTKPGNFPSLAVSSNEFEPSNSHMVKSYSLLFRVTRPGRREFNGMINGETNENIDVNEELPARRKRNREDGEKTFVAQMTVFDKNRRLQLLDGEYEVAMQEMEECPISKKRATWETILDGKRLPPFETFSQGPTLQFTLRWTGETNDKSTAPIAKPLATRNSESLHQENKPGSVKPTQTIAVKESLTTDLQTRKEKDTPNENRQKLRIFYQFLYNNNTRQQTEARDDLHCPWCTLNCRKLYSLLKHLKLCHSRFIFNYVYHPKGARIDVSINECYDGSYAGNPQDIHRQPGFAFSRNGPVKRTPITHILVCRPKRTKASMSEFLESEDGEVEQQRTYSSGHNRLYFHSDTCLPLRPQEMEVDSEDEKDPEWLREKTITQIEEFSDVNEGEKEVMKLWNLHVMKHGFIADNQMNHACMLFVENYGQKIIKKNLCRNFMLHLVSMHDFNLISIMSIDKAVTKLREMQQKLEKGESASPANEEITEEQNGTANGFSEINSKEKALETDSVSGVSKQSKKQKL

Y641N EZH2, sequence (Q15910 whole entry Y641N): as the sequence (Q15910 whole entry) above, with Y641N counted along it
Y641N EZH2, sequence (O75530 whole entry partner): as the sequence (O75530 whole entry partner) above
Y641N EZH2, sequence (Q15022 whole entry partner): as the sequence (Q15022 whole entry partner) above

Regarding `COc1cc(C)[nH]c(=O)c1CNC(=O)c1c(C)n([C@H](C)C2CCN(CCCC(F)(F)F)CC2)c2ccccc12` [Compound 152], the IC50 at Y641N EZH2 and against EZH2 was under 100 nM in each case. Besides, in assay [1], the EC50 was in the range of 400 to 2000 nM.
Consider `COc1cc(C)[nH]c(=O)c1CNC(=O)c1c(C)n([C@H](C)C2CCN(C(=O)c3ccccc3)CC2)c2ccccc12` [Compound 153], for which the IC50 against Y641N EZH2 and against EZH2 was under 100 nM each time. Further, in assay [1], the EC50 lay within 400 to 2000 nM.
In the case of `COc1cc(C)[nH]c(=O)c1CNC(=O)c1c(C)n([C@H](C)C2CCN(c3ccc(Cl)cc3)CC2)c2ccccc12` [Compound 154], the IC50 on Y641N EZH2 and against EZH2 was under 100 nM each time. For the same compound, in assay [1], the EC50 is 400 to 2000 nM.
Turning to `CNc1cc(C)[nH]c(=O)c1CNC(=O)c1c(C)n([C@H](C)C2CCN(CCC(F)(F)F)CC2)c2ccccc12` [Compound 155], the IC50 at Y641N EZH2 and against EZH2 was under 100 nM in each case. In addition, the EC50 in assay [1] fell in the range of 400 to 2000 nM.
In the case of `COc1cc(C)[nH]c(=O)c1CNC(=O)c1c(C)n([C@H](C)C2CCN(C[C@H](O)C(F)(F)F)CC2)c2ccccc12` [Compound 156], the 50% inhibitory concentration (IC50) against Y641N EZH2 and at EZH2 was under 100 nM each time. Besides, in assay [1], the EC50 lay within 400 to 2000 nM.
In the case of `COc1cc(C)[nH]c(=O)c1CNC(=O)c1c(C)n([C@H](C)C2CCN(C(=O)C3CC3)CC2)c2ccccc12` [Compound 157], the concentration for half-maximal inhibition (IC50) against Y641N EZH2 and on EZH2 was under 100 nM each time. For the same compound, in assay [1], the EC50 lay within 400 to 2000 nM.
As to `COc1cc(C)[nH]c(=O)c1CNC(=O)c1c(C)n([C@H](C)C2CCN(C(=O)N(C)C)CC2)c2ccccc12` [Compound 158], the IC50 against Y641N EZH2 and against EZH2 was under 100 nM throughout. Besides, the EC50 in assay [1] lay within 400 to 2000 nM.
Turning to `Cc1cc(C)c(CNC(=O)c2c(C)n([C@H](C)C3CCN(c4ccc(CN5CCOCC5)cn4)CC3)c3ccccc23)c(=O)[nH]1` [Compound 159], the IC50 at Y641N EZH2 and against EZH2 was under 100 nM each time. Also, the EC50 in assay [1] lay within 400 to 2000 nM.
As for `Cc1cc(C)c(CNC(=O)c2c(C)n([C@H](C)C3CCN(c4ccc(CN5CCOCC5)cc4)CC3)c3ccccc23)c(=O)[nH]1` [Compound 160], the IC50 on Y641N EZH2 and at EZH2 was under 100 nM throughout. The EC50 in assay [1] fell in the range of 400 to 2000 nM.
In the case of `Cc1cc(C)c(CNC(=O)c2c(C)n([C@H](C)C3CCN(S(=O)(=O)CCN4CCCC4)CC3)c3ccccc23)c(=O)[nH]1` [Compound 161], the IC50 against Y641N EZH2 and on EZH2 was under 100 nM in each case. The EC50 in assay [1] was in the range of 400 to 2000 nM.
With `Cc1cc(C)c(CNC(=O)c2c(C)n([C@H](C)C3CCN(C(=O)N4CCN(C)CC4)CC3)c3ccccc23)c(=O)[nH]1` [Compound 162], the 50% inhibitory concentration (IC50) against Y641N EZH2 and on EZH2 was under 100 nM each time. Further, the EC50 in assay [1] lay within 400 to 2000 nM.
For `COc1cc(C)[nH]c(=O)c1CNC(=O)c1c(C)n([C@H](C)C2CCN(c3ccncn3)CC2)c2ccccc12` [Compound 164], the IC50 against Y641N EZH2 and against EZH2 was under 100 nM in each case. In addition, the EC50 in assay [1] was over 2000 nM.
As for `COCCOCCOCCOCCOCCOCCOC(=O)N1CCC([C@@H](C)n2c(C)c(C(=O)NCc3c(OC)cc(C)[nH]c3=O)c3ccccc32)CC1` [Compound 165], the IC50 was 100 to 1000 nM against Y641N EZH2 and under 100 nM against EZH2. For the same compound, in assay [1], the EC50 is over 2000 nM.
Regarding `COc1cc(C)[nH]c(=O)c1CNC(=O)c1c(C)n([C@H](C)C2CCN(C(CF)CF)CC2)c2ccccc12` [Compound 166], the 50% inhibitory concentration (IC50) against Y641N EZH2 and on EZH2 was under 100 nM in each case. Moreover, the EC50 in assay [1] was over 2000 nM.
As to `COc1cc(C)[nH]c(=O)c1CNC(=O)c1c(C)n([C@H](C)C2CCN(C(=O)N3CCOCC3)CC2)c2ccccc12` [Compound 167], the concentration for half-maximal inhibition (IC50) at Y641N EZH2 and at EZH2 was under 100 nM each time. Also, the EC50 in assay [1] is over 2000 nM.
As to `CCN(CC)C(=O)CN1CCC([C@@H](C)n2c(C)c(C(=O)NCc3c(OC)cc(C)[nH]c3=O)c3ccccc32)CC1` [Compound 168], the half-inhibitory concentration (IC50) against Y641N EZH2 and against EZH2 was under 100 nM each time. Further, the EC50 in assay [1] was over 2000 nM.
